Measured values: patent US5633016A, “Combination chemotherapy” (SmithKline Beecham Corporation, priority 1995, dated 1997)
Like-named read-outs stand apart in the source and are kept apart here.

Legend:
[1] = format: physicochemical; conditions: hang-bag, 24 hours
Procedure: Topotecan diluted in saline (10 ug/ml or 500 ug/ml) or dextrose (6.7 ug/ml or 330 ug/ml) is stable in a hang-bag for 24 hours with at least 95% recovery.

DNA topoisomerase I = conditions: background statement; cited from earlier work
[2] = in words; cited from earlier work
esophageal cancer = conditions: humans, sole chemotherapeutic agent; cited from earlier work
[3] = test system: non-small cell lung carcinoma; conditions: humans, sole chemotherapeutic agent; cited from earlier work
[4] = format: physicochemical; conditions: plastic bags, room temperature
Procedure: Stability - Shelf life surveillance of the intact vials is ongoing. Because the single-use lyophilized dosage form contains no antibacterial preservatives, it is advised that the reconstituted solution be discarded eight hours after initial entry into the vial. Further dilutions of the reconstituted solution to concentrations of 0.02 mg/ml and 0.1 mg. ml in 5% Dextrose Injection, USP, ("D5W") or 0.9% Sodium Chloride Injection, USP, ("NS") in plastic bags stored at room temperature yielded the following stability results:
Percentage of Initial Topotecan Remaining in Solution

ovarian cancer = conditions: humans, sole chemotherapeutic agent; cited from earlier work

SMILES: CC[C@@]1(O)C(=O)OCc2c1cc1n(c2=O)Cc2cc3c(CN(C)C)c(O)ccc3nc2-1 [Topotecan, (S)-10[(dimethylamino)methyl]-4-ethyl-4,9-dihydroxy-IH-pyrano[3',4':6,7]indolizino[1,2-b]quinolone-3,14(4H,12H)-dione]
- recovery ([1]; dextrose (6.7 ug/ml or 330 ug/ml)): at least 95%
- recovery ([1]; saline (10 ug/ml or 500 ug/ml)): at least 95%
- inhibition of DNA topoisomerase I (DNA topoisomerase I): specific inhibitor of DNA topoisomerase I
- water solubility [2]: water-soluble
- clinical efficacy (esophageal cancer): shown clinical efficacy
- clinical efficacy [3]: shown clinical efficacy
- Percentage of Initial Topotecan Remaining in Solution ([4]; D5W (5% Dextrose Injection, USP), 0.02 mg/ml, 0 hrs): 100.00 Percentage
- Percentage of Initial Topotecan Remaining in Solution ([4]; D5W (5% Dextrose Injection, USP), 0.1 mg/ml, 0 hrs): 100.00 Percentage
- Percentage of Initial Topotecan Remaining in Solution ([4]; NS (0.9% Sodium Chloride Injection, USP), 0.02 mg/ml, 0 hrs): 100.00 Percentage
- Percentage of Initial Topotecan Remaining in Solution ([4]; NS (0.9% Sodium Chloride Injection, USP), 0.1 mg/ml, 0 hrs): 100.00 Percentage
- Percentage of Initial Topotecan Remaining in Solution ([4]; NS (0.9% Sodium Chloride Injection, USP), 0.1 mg/ml, 6 hrs): 97.71 Percentage
- Percentage of Initial Topotecan Remaining in Solution ([4]; NS (0.9% Sodium Chloride Injection, USP), 0.1 mg/ml, 24 hrs): 98.30 Percentage
- Percentage of Initial Topotecan Remaining in Solution ([4]; NS (0.9% Sodium Chloride Injection, USP), 0.1 mg/ml, 48 hrs): 98.35 Percentage
- clinical efficacy (ovarian cancer): shown clinical efficacy
